Marks after values point to notes of the source that are not given here.
Experiments:
PEDV [1] = assay: Enteric clinical observation scoring (diarrhea, depression, gauntness) of nursery pigs challenged with PEDV; type: in vivo, pig; parameters: Depression score, Severity: scale not given here; conditions: for Depression score, Severity / Diarrhea score, Severity / Gauntness score, Severity: average of worst score of each pig over 14-d period; for Depression score, Incidence / Diarrhea score, Incidence / Gauntness score, Incidence: pigs affected/pigs; for Gauntness score, Mean of Day 0 to 14: score 0-2; for Depression score, Mean of Day 0 to 14: score 0-3; for Diarrhea score, Mean of Day 0 to 14: score 1-4
Method: (§1) The seventy-five piglets were randomly assigned to one of three treatment groups: control (no ionophore), narasin (30 mg/kg) and narasin (60 mg/kg). They acclimatized to their environment and were fed daily for seven days prior to exposure with PEDV on Day 0. Treatment continued for 14 days following challenge. Pigs from the three treatment groups were administered orally with 4×10^4 TCID50/mL of the PEDV isolate PEDV/USA/NC/2013/49469 (College of Veterinary Medicine, Iowa State University). The piglets were monitored daily for changes in clinical parameters, clinical score for diarrhea, depression and gauntness, rate of food consumption, and rate of body weight change and viral swabs were taken daily to determine viral shedding.
Incidence and severity of the score data (diarrhea, depression, and gauntness) were summarized by frequencies and mean scores on a daily basis.
Table 2 indicates the scoring system used to measure diarrhea, depression, and gauntness. Table 3 compares the mean scores for diarrhea, depression and gauntness in nursery pigs whose diet included 0, 30 or 60 mg/kg narasin.

PEDV [2] = assay: Viral shedding of PEDV in fecal swabs by real-time RT-PCR; type: in vivo, pig; conditions: for Viral shedding: only pigs positive for shedding
Method: as §1
(§2) Viral shedding values was evaluated by RMANOVA and the PROC MIXED procedure of SAS (SAS, Cary, N.C.). Other variables for analysis included growth performance data (average daily gain, or ADG; average daily feed intake, or ADFI; and feed efficiency (unit of weight gain per unit of feed consumed), or G:F), incidence and severity of diarrhea, depression, and gauntness scores, and intestinal histology score and immunohistochemistry. The analysis of the growth performance outcomes were conducted using a generalized linear mixed model and the PROC MIXED procedure of SAS.
The effects of narasin levels (0, 30, 60 mg/kg) on within-day viral shedding of nursery pigs (Table 4) and percentage of nursery pigs shedding PEDV (Table 5) are compared. Fecal swabs were collected from all pigs on test daily from Day 0 to 14 of study. Each sample was labeled with pig identification, pen number, and sample day. All samples were frozen at the time of collection and stored until required for analysis. Only fecal swab samples collected from days 0, 1, 2, 3, 4, 5, 6, 7, 8, 9, and 14 were sent for analysis. Fecal swab samples were sent to the Iowa State Veterinary Diagnostic Laboratory (ISVDL) and were analyzed using real-time RT-PCR to determine viral shedding of PEDV.

PEDV [3] = assay: Intestinal histology score and immunohistochemistry of PEDV-challenged nursery pigs; type: in vivo, pig; conditions: not significant (P>0.05)
Method: as §2
The effects of narasin inclusion level on the intestinal histology score and immunohistochemistry were analyzed. As narasin level increased from 0, 30, 60 mg/kg), histology scores decreased from 2 to 0 while the immunohistochemistry score decreased only at the 60 mg/kg level (from 3 to 2) although differences were not significant (P>0.05).

[4] = test system: flavivirus responsible for dengue fever; conditions: added to cultured human cells infected with the virus (Low, et al. 2011); cited from earlier work
nursery pigs = conditions: about 83 mg/kg feed, at least in the presence of tiamulin; cited from earlier work

CC[C@@H](C(=O)O)[C@@H]1O[C@@H]([C@@H](C)[C@H](O)[C@H](C)C(=O)[C@H](CC)[C@H]2O[C@]3(C=C[C@@H](O)[C@]4(CC[C@@](C)([C@H]5CC[C@](O)(CC)[C@H](C)O5)O4)O3)[C@H](C)C[C@@H]2C)[C@@H](C)C[C@@H]1C [narasin]
effect of narasin level on mean or severity of gauntness scores (PEDV [1]; 0, 30, 60 mg/kg feed, 14-d period): little effect
incidence of depression, animals (PEDV [1]; 30 mg/kg feed, 14-d period): 4 animals
Depression score, Severity (PEDV [1]; 30 mg/kg feed): 0.16
Diarrhea score, Severity (PEDV [1]; 30 mg/kg feed): 2.72
Gauntness score, Severity (PEDV [1]; 30 mg/kg feed): 0.68
Depression score, Incidence (PEDV [1]; 30 mg/kg feed): 4/25
Diarrhea score, Incidence (PEDV [1]; 30 mg/kg feed): 19/25
Gauntness score, Incidence (PEDV [1]; 30 mg/kg feed): 14/25
Gauntness score, Mean of Day 0 to 14 (PEDV [1]; 30 mg/kg feed): 0.14
Depression score, Mean of Day 0 to 14 (PEDV [1]; 30 mg/kg feed): 0.03
Diarrhea score, Mean of Day 0 to 14 (PEDV [1]; 30 mg/kg feed): 1.45
incidence of depression, animals (PEDV [1]; 60 mg/kg feed, 14-d period): 3 animals
Depression score, Severity (PEDV [1]; 60 mg/kg feed): 0.12
Diarrhea score, Severity (PEDV [1]; 60 mg/kg feed): 2.48
Gauntness score, Severity (PEDV [1]; 60 mg/kg feed): 0.52
Depression score, Incidence (PEDV [1]; 60 mg/kg feed): 3/25
Diarrhea score, Incidence (PEDV [1]; 60 mg/kg feed): 19/25
Gauntness score, Incidence (PEDV [1]; 60 mg/kg feed): 11/25
Gauntness score, Mean of Day 0 to 14 (PEDV [1]; 60 mg/kg feed): 0.14
Depression score, Mean of Day 0 to 14 (PEDV [1]; 60 mg/kg feed): 0.02
Diarrhea score, Mean of Day 0 to 14 (PEDV [1]; 60 mg/kg feed): 1.37
duration of shedding (PEDV [2]; 0, 30, 60 mg/kg feed): generally decreased as narasin level increased
effect of narasin level on the percentage of pigs shedding PEDV (PEDV [2]; 0, 30, 60 mg/kg feed, P>0.10): no effect
viral shedding compared to the control (PEDV [2]; 30 mg/kg feed): lower (P<0.10) viral shedding on Day 2 and Day 3
Viral shedding (PEDV [2]; 30 mg/kg feed, Day 0): 0 cells/mL
Viral shedding (PEDV [2]; 30 mg/kg feed, Day 1): 1 cells/mL
Viral shedding (PEDV [2]; 30 mg/kg feed, Day 2): 1,005* cells/mL
Viral shedding (PEDV [2]; 30 mg/kg feed, Day 3): 152,889* cells/mL
Viral shedding (PEDV [2]; 30 mg/kg feed, Day 4): 7,543,717 cells/mL
Viral shedding (PEDV [2]; 30 mg/kg feed, Day 5): 108,303,640 cells/mL
Viral shedding (PEDV [2]; 30 mg/kg feed, Day 6): 879,972,048 cells/mL
Viral shedding (PEDV [2]; 30 mg/kg feed, Day 7): 1,422,120,182 cells/mL
Viral shedding (PEDV [2]; 30 mg/kg feed, Day 8): 268,967,479 cells/mL
Viral shedding (PEDV [2]; 30 mg/kg feed, Day 9): 63,817,042 cells/mL
Viral shedding (PEDV [2]; 30 mg/kg feed, Day 14): 2,256 cells/mL
viral shedding compared to the control (PEDV [2]; 60 mg/kg feed): lower (P<0.10) viral shedding on Day 2, 3, 4, 5, and 6
Viral shedding (PEDV [2]; 60 mg/kg feed, Day 0): 0 cells/mL
Viral shedding (PEDV [2]; 60 mg/kg feed, Day 1): 0 cells/mL
Viral shedding (PEDV [2]; 60 mg/kg feed, Day 2): 1* cells/mL
Viral shedding (PEDV [2]; 60 mg/kg feed, Day 3): 4,085* cells/mL
Viral shedding (PEDV [2]; 60 mg/kg feed, Day 4): 18,980* cells/mL
Viral shedding (PEDV [2]; 60 mg/kg feed, Day 5): 593,842* cells/mL
Viral shedding (PEDV [2]; 60 mg/kg feed, Day 6): 5,551,647* cells/mL
Viral shedding (PEDV [2]; 60 mg/kg feed, Day 7): 171,586,154 cells/mL
Viral shedding (PEDV [2]; 60 mg/kg feed, Day 8): 58,813,444 cells/mL
Viral shedding (PEDV [2]; 60 mg/kg feed, Day 9): 16,189,481 cells/mL
Viral shedding (PEDV [2]; 60 mg/kg feed, Day 14): 9,262 cells/mL
immunohistochemistry score (PEDV [3]; 60 mg/kg feed, decreased from 3): 2
intestinal histology score (PEDV [3]; narasin level increased 0, 30, 60 mg/kg: decreased from 2 to 0): 0
replication of dengue flavivirus [4]: block replication
toxicity to nursery pigs (nursery pigs): toxic
